We go through 15 compounds from patent publication US20200207734A1, “HETEROCYCLIC COMPOUND AND USE THEREOF” (Takeda Pharmaceutical Company Limited, priority 2017, published 2020).

For series [1], the target named is T1, human orexin type 2 receptor (Homo sapiens, UniProt O43614).
T1 construct: human orexin type 2 receptor cDNA was inserted into pcDNA3.1(+) plasmid vector (Invitrogen); expressed in transfected cells
T1 sequence (O43614 1-444): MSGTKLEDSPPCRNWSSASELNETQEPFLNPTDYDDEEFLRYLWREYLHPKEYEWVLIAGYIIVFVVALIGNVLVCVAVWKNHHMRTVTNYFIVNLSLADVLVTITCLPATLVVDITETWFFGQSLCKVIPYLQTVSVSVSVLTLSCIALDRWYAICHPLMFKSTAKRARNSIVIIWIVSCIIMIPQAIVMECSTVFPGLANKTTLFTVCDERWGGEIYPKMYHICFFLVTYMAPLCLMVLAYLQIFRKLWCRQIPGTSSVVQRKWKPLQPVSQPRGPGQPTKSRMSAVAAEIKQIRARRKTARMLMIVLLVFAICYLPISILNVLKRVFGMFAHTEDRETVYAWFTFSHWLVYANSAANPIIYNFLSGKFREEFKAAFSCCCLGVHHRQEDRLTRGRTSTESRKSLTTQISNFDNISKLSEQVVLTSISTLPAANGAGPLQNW
As to the kind of experiment: Measurement of orexin type 2 receptor agonist activity (calcium fluorescence, CHO cells expressing hOX2R). To be noted: test compound 3 μM; CHO cells expressing human OX2 receptor; DMSO = 0%, orexin A (human) = 100%. The format is cell-based. In outline:
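CHO-dhfr cells stably expressing hOX2R, loaded with Fluo-4 AM in HBSS/20 mM HEPES/0.1% BSA with probenecid, then given test compound. Calcium fluorescence was read for about 2 min 40 sec. Activity (%) was scaled between DMSO (0%) and 10 nM final human orexin A (100%).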

The test system of a further series is cynomolgus monkeys. As to the kind of experiment: Evaluation of wake-promoting effects in cynomolgus monkeys (EEG/EMG/EOG). The format is in vivo. To be noted: for response vs control in vivo at 1 mg/kg: Macaca fascicularis, sc, 4 h, s.c., cynomolgus monkeys, administered at ZT12, read-out: Wakefulness time (% of vehicle treatment) (Mean, n = 1-2). As to the method:
The wake-promoting effects were evaluated by measuring the electroencephalogram (EEG), electromyogram (EMG) and electrooculogram (EOG) in cynomolgus monkeys. Under isoflurane anesthesia (1-5%, Pfizer Japan Inc., Tokyo, Japan), male cynomolgus monkeys (3-5 years old, Hamri Co., Ltd., Ibaraki, Japan) were surgically implanted with radio-telemetry transmitters (TL10M3-D70-EEE, Data Sciences International Inc., MN, USA). EEG leads were stereotaxically positioned at the parietal area and secured to the cranium with stainless-steel screws in contact with the dura. […] Bilateral EMG leads were implanted into the back cervical muscles. After the surgery, each monkey was given penicillin (100,000 units/head, i.m., Meiji Seika Pharma Co., Ltd., Tokyo, Japan), buprenorphine (0.02 mg/kg, i.m., Otsuka Pharmaceutical Co., Ltd., Tokyo, Japan) and prednisolone (1 mg/kg, s.c., Kyoritsu Seiyaku Co., Ltd., Tokyo, Japan) daily for one week. After at least a 1-month recovery period in home cages, the monkeys were habituated to the recording chamber (an acrylic cage 60W×55D×75H (cm)) located in a soundproof, electrically shielded room. After we confirmed that monkeys slept sufficiently in the experimental room, cortical EEG, EMG and EOG signals were recorded using Dataquest ART software (Data Sciences International Inc., MN, USA). The signals were semi automatically scored in 20 sec epochs by a sleep scoring system (SleepSign, Kissei Comtec Co., Ltd., Nagano, Japan). This preliminary scoring was visually inspected and corrected if necessary. Test compound (10 mg/kg, Table 4-1) suspended in 0.5% methylcellulose aqueous solution, or vehicle (i.e., 0.5% methylcellulose aqueous solution) was administered orally (p.o.) to monkeys at zeitgeber time 12 (ZT12) in a volume of 5 mL/kg body weight in a cross-over design. EEG, EMG and EOG recordings were performed for 4 h after the compound administration/treatments. The time spent in wakefulness for 4 h after administration (% of vehicle treatment) was calculated by using SleepSign. Test compound (1 mg/kg, Table 4-2) dissolved in a mixed solution comprising 5% DMSO, 5% Cremophor EL, 20% PEG400 and 70% soluplus (1% (w/v)), or vehicle (i.e., a mixed solution comprising 5% DMSO, 5% Cremophor EL, 20% PEG400 and 70% soluplus (1% (w/v))) was administered subcutaneously (s.c.) to monkeys at ZT12 in a volume of 0.5 mL/kg body weight in a pre-post design. EEG, EMG and EOG recordings were performed for 4 h after the compound administration/treatments. The time spent in wakefulness for 4 h after administration (% of vehicle treatment) was calculated by using SleepSign.

A short description of series [2]: Evaluation of microsome stability in human. The class given is in vitro ADME. The settings on record: human liver microsomes 0.2 mg/mL, 1 μmol/L test compound, pH 7.4, NADPH-generating system, 15 and 30 min; read-out: Clearance (in vitro intrinsic metabolic clearance). As to the method:
Human liver microsomes were purchased from Xenotech, LLC (Lenexa, Kans.). An incubation mixture consisted of microsomes in 50 mmol/L KH2PO4—K2HPO4 phosphate buffer (pH 7.4) and 1 μmol/L test compound. The concentration of microsomal protein was 0.2 mg/mL. An NADPH-generating system (5 mmol/L MgCl2, 5 mmol/L glucose-6-phosphate, 0.5 mmol/L beta-NADP+ and 1.5 unit/mL glucose-6-phosphate dehydrogenase) was added to the incubation mixture with a half volume of the reaction mixture to initiate the enzyme reaction. The reaction was terminated 15 and 30 minutes after the initiation of the reaction by mixing the reaction mixture with acetonitrile, followed by centrifugation at 2500 rpm for 10 min. The supernatant was subjected to LC/MS/MS analysis. The metabolic velocity was calculated as the slope of the concentration-time plot. The in vitro intrinsic metabolic clearance was calculated by dividing initial metabolic velocity by the test compound concentration in the incubation mixture.
For orientation: Microsomes from liver hold many membrane-bound enzymes, among them those of drug oxidation.

As for `CCS(=O)(=O)N[C@H]1CCN(C(=O)N2CCC2)[C@H]1Cc1cccc(-c2cc(F)cc(F)c2)c1` [Example 362, N-((2S,3S)-1-(azetidin-1-ylcarbonyl)-2-((3′,5′-difluorobiphenyl-3-yl)methyl)pyrrolidin-3-yl)ethanesulfonamide], the “OX2R agonist activity (3 μM, %)” value in series [1] is 103%. In addition, in the series with cynomolgus monkeys, the response vs control in vivo at 1 mg/kg came out at 271%.

As to `CCS(=O)(=O)N[C@H]1CCN(C(=O)N2CCC2)[C@H]1Cc1cccc(-c2ccccc2)c1` [Example 364, N-((2S,3S)-1-(azetidin-1-ylcarbonyl)-2-(biphenyl-3-ylmethyl)pyrrolidin-3-yl)ethanesulfonamide], the “OX2R agonist activity (3 μM, %)” value in series [1] is reported as 104%. For the same compound, in the series with cynomolgus monkeys, the response vs control in vivo at 1 mg/kg is 375%.

`CCS(=O)(=O)N[C@H]1CCN(C(=O)N2CCC2)[C@H]1Cc1cccc(-c2cccc(F)c2)c1F` [Example 372, N-((2S,3S)-1-(azetidin-1-ylcarbonyl)-2-((2,3′-difluorobiphenyl-3-yl)methyl)pyrrolidin-3-yl)ethanesulfonamide]: the “OX2R agonist activity (3 μM, %)” value in series [1] was 98%. The response vs control in vivo at 1 mg/kg with cynomolgus monkeys was found to be 328%.

Consider `CN(C)C(=O)N1CC[C@H](NS(=O)(=O)N(C)C)[C@@H]1Cc1cccc(-c2cccc(F)c2)c1F` [Example 377, (2S,3S)-2-((2,3′-difluorobiphenyl-3-yl)methyl)-3-((dimethylsulfamoyl)amino)-N,N-dimethylpyrrolidine-1-carboxamide], for which the “OX2R agonist activity (3 μM, %)” value in series [1] stood at 103%. Further, the response vs control in vivo at 1 mg/kg in the series on cynomolgus monkeys was 343%.

Regarding `CCS(=O)(=O)N[C@H]1CCN(C(=O)N(C)OC)[C@H]1Cc1cccc(-c2ccccc2)c1` [Example 407, (2S,3S)-2-(biphenyl-3-ylmethyl)-3-((ethylsulfonyl)amino)-N-methoxy-N-methylpyrrolidine-1-carboxamide], the “OX2R agonist activity (3 μM, %)” value in series [1] is reported as 107%. Besides, the response vs control in vivo at 1 mg/kg in the series with cynomolgus monkeys is 391%.

As to `CC(C)(O)C(=O)N1CC[C@H](NS(=O)(=O)C2(F)CC2)[C@@H]1Cc1cccc(-c2cccc(F)c2)c1F` [Example 450, N-[(2S,3S)-2-[(2,3′-difluoro[1,1′-biphenyl]-3-yl)methyl]-1-(2-hydroxy-2-methylpropanoyl)pyrrolidin-3-yl]-1-fluorocyclopropane-1-sulfonamide], the “OX2R agonist activity (3 μM, %)” value in series [1] stood at 107%. In series [2], the microsomal CLint at 1 μmol/L worked out at 78 µL/min/mg. Moreover, in the series on cynomolgus monkeys, the response vs control in vivo at 1 mg/kg was found to be 243%.

Consider `CCS(=O)(=O)N[C@H]1CCN(C(=O)N2CCC2)[C@H]1Cc1cccc(-c2ccccc2)c1F` [Example 456, N-{(2S,3S)-1-(azetidine-1-carbonyl)-2-[(2-fluoro[1,1′-biphenyl]-3-yl)methyl]pyrrolidin-3-yl}ethanesulfonamide], for which, in series [1], the “OX2R agonist activity (3 μM, %)” value amounted to 104%. In the series with cynomolgus monkeys, the response vs control in vivo at 1 mg/kg was 446%.

As to `CCS(=O)(=O)N[C@H]1CCN(C(=O)N(C)OC)[C@H]1Cc1cccc(-c2cccc(F)c2)c1` [Example 474, (2S,3S)-3-[(ethanesulfonyl)amino]-2-[(3′-fluoro[1,1′-biphenyl]-3-yl)methyl]-N-methoxy-N-methylpyrro-lidine-1-carboxamide], the “OX2R agonist activity (3 μM, %)” value in series [1] stood at 109%. Besides, the response vs control in vivo at 1 mg/kg in the series on cynomolgus monkeys was 329%.

Turning to `CN(C)C(=O)N1CC[C@H](NS(=O)(=O)N(C)C)[C@@H]1Cc1cccc(-c2ccccc2)c1F` [Example 475, (2S,3S)-3-[(dimethylsulfamoyl)amino]-2-[(2-fluoro[1,1′-biphenyl]-3-yl)methyl]-N,N-dimethyl-pyrrolidine-1-carboxamide], the “OX2R agonist activity (3 μM, %)” value in series [1] is listed as 104%. Moreover, in the series with cynomolgus monkeys, the response vs control in vivo at 1 mg/kg came out at 410%.

As for `CN(C)C(=O)N1CC[C@H](NS(=O)(=O)N(C)C)[C@@H]1Cc1cccc(-c2cc(F)cc(F)c2)c1F` [Example 476, (2S,3S)-3-[(dimethylsulfamoyl)amino]-N,N-dimethyl-2-[(2,3′,5′-trifluoro[1,1′-biphenyl]-3-yl)methyl]pyrrolidine-1-carboxamide], the “OX2R agonist activity (3 μM, %)” value in series [1] turned out to be 103%. The response vs control in vivo at 1 mg/kg in the series on cynomolgus monkeys worked out at 392%.

As for `CCS(=O)(=O)N[C@H]1CCN(C(=O)N(C)OC)[C@H]1Cc1cccc(-c2cc(F)cc(F)c2)c1` [Example 477, (2S,3S)-2-[(3′,5′-difluoro[1,1′-biphenyl]-3-yl)methyl]-3-[(ethane-sulfonyl)amino]-N-methoxy-N-methylpyrrolidine-1-carboxamide], in series [1], the “OX2R agonist activity (3 μM, %)” value came to 106%. Further, the response vs control in vivo at 1 mg/kg in the series on cynomolgus monkeys is 383%.

Consider `CCS(=O)(=O)N[C@H]1CCN(C(=O)C(C)(C)O)[C@H]1Cc1cccc(-c2cccc(F)c2)c1F` [Example 482, N-((2S,3S)-2-((2,3′-difluorobi-phenyl-3-yl)methyl)-1-(2-hydroxy-2-methylpropanoyl)pyrrolidin-3-yl)ethanesulfonamide], for which the “OX2R agonist activity (3 μM, %)” value in series [1] is 110%. In series [2], the microsomal CLint at 1 μmol/L is 26 µL/min/mg. In addition, the “Wakefulness time (% of vehicle treatment)” value in the series on cynomolgus monkeys (10 mg/kg, p.o., at ZT12, 4 h after administration, male cynomolgus monkeys, Mean, n = 4-8, cross-over design) is given as 280.82 % of vehicle treatment.

Consider `CS(=O)(=O)N[C@H]1CCN(C(=O)N2CCC2)[C@H]1Cc1cccc(-c2cccc(F)c2)c1F` [Example 485, N-((2S,3S)-1-(azetidin-1-ylcarbonyl)-2-((2,3′-difluorobiphenyl-3-yl)methyl)pyrrolidin-3-yl)methanesulfonamide], for which the “OX2R agonist activity (3 μM, %)” value in series [1] is given as 104%. Moreover, the response vs control in vivo at 1 mg/kg in the series on cynomolgus monkeys was 449%.

Take `CCS(=O)(=O)N[C@H]1CCN(C(=O)N(C)C)[C@H]1Cc1cccc(-c2cccc(F)c2)c1F` [Example 486, (2S,3S)-2-((2,3′-difluorobiphenyl-3-yl)methyl)-3-((ethylsulfonyl)amino)-N,N-dimethylpyrrolidine-1-carboxa-mide]: the “OX2R agonist activity (3 μM, %)” value in series [1] amounted to 102%. In the series with cynomolgus monkeys, the response vs control in vivo at 1 mg/kg was 328%.

On to `CCS(=O)(=O)N[C@H]1CCN(C(=O)N(C)C)[C@H]1Cc1cccc(-c2cc(F)cc(F)c2)c1F` [Example 487, (2S,3S)-3-((ethylsulfonyl)amino)-N,N-dimethyl-2-((2,3′,5′-trifluorobi-phenyl-3-yl)methyl)pyrrolidine-1-carboxamide], for which the “OX2R agonist activity (3 μM, %)” value in series [1] is on record as 104%. For the same compound, the response vs control in vivo at 1 mg/kg in the series on cynomolgus monkeys was 355%.
